Assays:
late watergrass = test: Test Example 2: herbicidal activity, application during weed generation under submerged conditions (Table 17, symbol A); assay type: in vivo, late watergrass (Echinochloa oryzicola); settings: AAH 320 g/ha; application during weed generation, submerged conditions
In short: (§1)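 Alluvial soil in Wagner pots was flooded to 4 cm depth and sown with the three weeds together; pots were kept in a greenhouse at 25° C. to 30° C. At the one to two leaf stage, an emulsion formulation diluted in water to a set rate went onto the water surface; scored three weeks later.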

windgrass [1] = test: Test Example 5: herbicidal effect by foliage application, plastic box (Table 20, symbol L); assay type: in vivo, windgrass (Apera spica-venti); settings: foliage application, AAH 320 g/ha, evaluated three weeks after application
In short: (§2)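 Post-emergence foliar test in sterilized diluvial soil. Compound applied as water-diluted emulsion at a predetermined rate to 14-day-old plants; evaluation at three weeks.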

redroot pigweed [2] = test: Test Example 4: herbicidal effect by soil treatment (Table 19, symbol N); assay type: in vivo, redroot pigweed (Amaranthus retroflexus); settings: amount of applied herbicide 320 g/ha
In short: (§3)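 Scoring uses the grading scale of an earlier test, three weeks post-application. Treatment consists of spraying a diluted emulsion formulation across the surface of sterilized diluvial soil in which seeds are buried near 1.5 cm deep; boxes are kept in a greenhouse between 25° C. and 30° C.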

Chinese sprangletop = test: Test Example 3: herbicidal effect by foliage application, Wagner pot (Table 18, symbol D); assay type: in vivo, chinese sprangletop (Leptochloa chinensis); settings: amount of applied herbicide 320 g/ha
In short: (§4)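 Plants were sown in alluvial soil held under 0.1–0.5 cm standing water and grown 14 days in a greenhouse at 25–30 °C. An emulsifiable formulation, water-diluted to the set dose, was then sprayed onto the foliage, and effects were scored three weeks later using previously defined criteria.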

wild oat [3] = test: Test Example 4: herbicidal effect by soil treatment (Table 19, symbol I); assay type: in vivo, wild oat (Avena fatua); settings: amount of applied herbicide 320 g/ha
In short: as §3

blackgrass [4] = test: Test Example 5: herbicidal effect by foliage application, plastic box (Table 20, symbol J); assay type: in vivo, blackgrass (Alopecurus myosuroides); settings: foliage application, AAH 320 g/ha, evaluated three weeks after application
In short: as §2

chickweed [5] = test: Test Example 5: herbicidal effect by foliage application, plastic box (Table 20, symbol P); assay type: in vivo, common chickweed (Stellaria media); settings: foliage application, AAH 320 g/ha, evaluated three weeks after application
In short: as §2

persian speedwell [6] = test: Test Example 5: herbicidal effect by foliage application, plastic box (Table 20, symbol R); assay type: in vivo, Persian speedwell (Veronica persica); settings: foliage application, AAH 320 g/ha, evaluated three weeks after application
In short: as §2

southern crabgrass [7] = test: Test Example 4: herbicidal effect by soil treatment (Table 19, symbol F); assay type: in vivo, southern crabgrass (Digitaria ciliaris); settings: amount of applied herbicide 320 g/ha
In short: as §3

barnyard grass [8] = test: Test Example 3: herbicidal effect by foliage application, Wagner pot (Table 18, symbol H); assay type: in vivo, barnyard grass (Echinochloa crus-galli); settings: amount of applied herbicide 320 g/ha
In short: as §4

chickweed [9] = test: Test Example 4: herbicidal effect by soil treatment (Table 19, symbol P); assay type: in vivo, common chickweed (Stellaria media); settings: amount of applied herbicide 320 g/ha
In short: as §3

green foxtail [10] = test: Test Example 4: herbicidal effect by soil treatment (Table 19, symbol G); assay type: in vivo, green foxtail (Setaria viridis); settings: amount of applied herbicide 320 g/ha
In short: as §3

barnyard grass [11] = test: Test Example 5: herbicidal effect by foliage application, plastic box (Table 20, symbol H); assay type: in vivo, barnyard grass (Echinochloa crus-galli); settings: foliage application, AAH 320 g/ha, evaluated three weeks after application
In short: as §2

oval-leafed pondweed = test: Test Example 2: herbicidal activity, application during weed generation under submerged conditions (Table 17, symbol C); assay type: in vivo, oval-leafed pondweed (Monochoria vaginalis); settings: AAH 320 g/ha; application during weed generation, submerged conditions
In short: as §1

blackgrass [12] = test: Test Example 4: herbicidal effect by soil treatment (Table 19, symbol J); assay type: in vivo, blackgrass (Alopecurus myosuroides); settings: amount of applied herbicide 320 g/ha
In short: as §3

windgrass [13] = test: Test Example 4: herbicidal effect by soil treatment (Table 19, symbol L); assay type: in vivo, windgrass (Apera spica-venti); settings: amount of applied herbicide 320 g/ha
In short: as §3

Italian ryegrass [14] = test: Test Example 4: herbicidal effect by soil treatment (Table 19, symbol K); assay type: in vivo, Italian ryegrass (Lolium multiflorum); settings: amount of applied herbicide 320 g/ha
In short: as §3

persian speedwell [15] = test: Test Example 4: herbicidal effect by soil treatment (Table 19, symbol R); assay type: in vivo, Persian speedwell (Veronica persica); settings: amount of applied herbicide 320 g/ha
In short: as §3

southern crabgrass [16] = test: Test Example 5: herbicidal effect by foliage application, plastic box (Table 20, symbol F); assay type: in vivo, southern crabgrass (Digitaria ciliaris); settings: foliage application, AAH 320 g/ha, evaluated three weeks after application
In short: as §2

velvetleaf [17] = test: Test Example 4: herbicidal effect by soil treatment (Table 19, symbol M); assay type: in vivo, velvetleaf (Abutilon theophrasti); settings: amount of applied herbicide 320 g/ha
In short: as §3

green foxtail [18] = test: Test Example 5: herbicidal effect by foliage application, plastic box (Table 20, symbol G); assay type: in vivo, green foxtail (Setaria viridis); settings: foliage application, AAH 320 g/ha, evaluated three weeks after application
In short: as §2

Japanese bulrush = test: Test Example 2: herbicidal activity, application during weed generation under submerged conditions (Table 17, symbol B); assay type: in vivo, Japanese bulrush (Schoenoplectus juncoides); settings: AAH 320 g/ha; application during weed generation, submerged conditions
In short: as §1

barnyard grass [19] = test: Test Example 4: herbicidal effect by soil treatment (Table 19, symbol H); assay type: in vivo, barnyard grass (Echinochloa crus-galli); settings: amount of applied herbicide 320 g/ha
In short: as §3

Italian ryegrass [20] = test: Test Example 5: herbicidal effect by foliage application, plastic box (Table 20, symbol K); assay type: in vivo, Italian ryegrass (Lolium multiflorum); settings: foliage application, AAH 320 g/ha, evaluated three weeks after application
In short: as §2

wild oat [21] = test: Test Example 5: herbicidal effect by foliage application, plastic box (Table 20, symbol I); assay type: in vivo, wild oat (Avena fatua); settings: foliage application, AAH 320 g/ha, evaluated three weeks after application
In short: as §2

lambsquarters [22] = test: Test Example 4: herbicidal effect by soil treatment (Table 19, symbol O); assay type: in vivo, lambsquarters (Chenopodium album); settings: amount of applied herbicide 320 g/ha
In short: as §3

redroot pigweed [23] = test: Test Example 5: herbicidal effect by foliage application, plastic box (Table 20, symbol N); assay type: in vivo, redroot pigweed (Amaranthus retroflexus); settings: foliage application, AAH 320 g/ha, evaluated three weeks after application
In short: as §2

lambsquarters [24] = test: Test Example 5: herbicidal effect by foliage application, plastic box (Table 20, symbol O); assay type: in vivo, lambsquarters (Chenopodium album); settings: foliage application, AAH 320 g/ha, evaluated three weeks after application
In short: as §2

velvetleaf [25] = test: Test Example 5: herbicidal effect by foliage application, plastic box (Table 20, symbol M); assay type: in vivo, velvetleaf (Abutilon theophrasti); settings: foliage application, AAH 320 g/ha, evaluated three weeks after application
In short: as §2

rice flat sedge = test: Test Example 3: herbicidal effect by foliage application, Wagner pot (Table 18, symbol E); assay type: in vivo, rice flat sedge (Cyperus iria); settings: amount of applied herbicide 320 g/ha
In short: as §4

## CCOC(=O)OC(C)Oc1c(C)nn(C)c(=O)c1-c1c(-c2ccc(OC(F)F)cc2)sc2ccc(F)cc12 (stereo not drawn) [2-308]
Late watergrass
  herbicidal effect rating, A: late watergrass: 3 (Herbicidal rate of 40% or more and less than 70%)
Windgrass [1]
  L: windgrass, herbicidal effect (criteria 0-5): 0 (Herbicidal rate of 5% or less (almost no effect))
Redroot pigweed [2]
  herbicidal effect on N: redroot pigweed: 0 (Herbicidal rate of 5% or less (almost no effect))
Chinese sprangletop
  herbicidal effect on D: Chinese sprangletop: 3 (Herbicidal rate of 40% or more and less than 70%)
Wild oat [3]
  herbicidal effect on I: wild oat: 0 (Herbicidal rate of 5% or less (almost no effect))
Blackgrass [4]
  J: blackgrass, herbicidal effect (criteria 0-5): 0 (Herbicidal rate of 5% or less (almost no effect))
Chickweed [5]
  P: chickweed, herbicidal effect (criteria 0-5): 5 (Herbicidal rate of 90% or more (almost completely withered))
Persian speedwell [6]
  R: persian speedwell, herbicidal effect (criteria 0-5): 5 (Herbicidal rate of 90% or more (almost completely withered))
Southern crabgrass [7]
  herbicidal effect on F: southern crabgrass: 0 (Herbicidal rate of 5% or less (almost no effect))
Barnyard grass [8]
  herbicidal effect on H: barnyard grass: 5 (Herbicidal rate of 90% or more (almost completely withered))
Chickweed [9]
  herbicidal effect on P: chickweed: 0 (Herbicidal rate of 5% or less (almost no effect))
Green foxtail [10]
  herbicidal effect on G: green foxtail: 0 (Herbicidal rate of 5% or less (almost no effect))
Barnyard grass [11]
  H: barnyard grass, herbicidal effect (criteria 0-5): 4 (Herbicidal rate of 70% or more and less than 90%)
oval-leafed pondweed
  herbicidal effect rating, C: oval-leafed pondweed: 0 (Herbicidal rate of 5% or less (almost no effect))
Blackgrass [12]
  herbicidal effect on J: blackgrass: 0 (Herbicidal rate of 5% or less (almost no effect))
Windgrass [13]
  herbicidal effect on L: windgrass: 0 (Herbicidal rate of 5% or less (almost no effect))
Italian ryegrass [14]
  herbicidal effect on K: Italian ryegrass: 0 (Herbicidal rate of 5% or less (almost no effect))
Persian speedwell [15]
  herbicidal effect on R: persian speedwell: 5 (Herbicidal rate of 90% or more (almost completely withered))
Southern crabgrass [16]
  F: southern crabgrass, herbicidal effect (criteria 0-5): 1 (Herbicidal rate of 5% or more and less than 20%)
Velvetleaf [17]
  herbicidal effect on M: velvetleaf: 0 (Herbicidal rate of 5% or less (almost no effect))
Green foxtail [18]
  G: green foxtail, herbicidal effect (criteria 0-5): 5 (Herbicidal rate of 90% or more (almost completely withered))
Japanese bulrush
  herbicidal effect rating, B: Japanese bulrush: 0 (Herbicidal rate of 5% or less (almost no effect))
Barnyard grass [19]
  herbicidal effect on H: barnyard grass: 0 (Herbicidal rate of 5% or less (almost no effect))
Italian ryegrass [20]
  K: Italian ryegrass, herbicidal effect (criteria 0-5): 0 (Herbicidal rate of 5% or less (almost no effect))
Wild oat [21]
  I: wild oat, herbicidal effect (criteria 0-5): 0 (Herbicidal rate of 5% or less (almost no effect))
Lambsquarters [22]
  herbicidal effect on O: lambsquarters: 0 (Herbicidal rate of 5% or less (almost no effect))
Redroot pigweed [23]
  N: redroot pigweed, herbicidal effect (criteria 0-5): 4 (Herbicidal rate of 70% or more and less than 90%)
Lambsquarters [24]
  O: lambsquarters, herbicidal effect (criteria 0-5): 5 (Herbicidal rate of 90% or more (almost completely withered))
Velvetleaf [25]
  M: velvetleaf, herbicidal effect (criteria 0-5): 5 (Herbicidal rate of 90% or more (almost completely withered))
Rice flat sedge
  herbicidal effect on E: rice flat sedge: 4 (Herbicidal rate of 70% or more and less than 90%)
